Laboratory results as given in ChEMBL document CHEMBL4613211, “Aurone: A biologically attractive scaffold as anticancer agent” (Eur J Med Chem, 2019).

Columns and labels:
Assay type in all cases: functional
MOLT-4 = test: Growth inhibition of human MOLT4 cells at 10 uM after 48 hrs by sulforhodamine B assay relative to control; conditions: MOLT-4, 48 h, read-out: GI
RPMI-8226 = test: Growth inhibition of human RPMI8226 cells at 10 uM after 48 hrs by sulforhodamine B assay relative to control; conditions: RPMI-8226, 48 h, read-out: GI
SR = test: Growth inhibition of human SR cells at 10 uM after 48 hrs by sulforhodamine B assay relative to control; conditions: read-out: GI
EKVX = test: Growth inhibition of human EKVX cells at 10 uM after 48 hrs by sulforhodamine B assay relative to control; conditions: read-out: GI
NCI-H226 = test: Growth inhibition of human NCI-H226 cells at 10 uM after 48 hrs by sulforhodamine B assay relative to control; conditions: NCI-H226, 48 h, read-out: GI
NCI-H522 = test: Growth inhibition of human NCI-H522 cells at 10 uM after 48 hrs by sulforhodamine B assay relative to control; conditions: NCI-H522, 48 h, read-out: GI
HCC 2998 = test: Growth inhibition of human HCC2998 cells at 10 uM after 48 hrs by sulforhodamine B assay relative to control; conditions: HCC 2998, 48 h, read-out: GI
HCT-116 = test: Growth inhibition of human HCT116 cells at 10 uM after 48 hrs by sulforhodamine B assay relative to control; conditions: HCT-116, 48 h, read-out: GI
HT-29 = test: Growth inhibition of human HT-29 cells at 10 uM after 48 hrs by sulforhodamine B assay relative to control; conditions: HT-29, 48 h, read-out: GI
SW-620 = test: Growth inhibition of human SW620 cells at 10 uM after 48 hrs by sulforhodamine B assay relative to control; conditions: SW-620, 48 h, read-out: GI
SF-268 = test: Growth inhibition of human SF268 cells at 10 uM after 48 hrs by sulforhodamine B assay relative to control; conditions: SF-268, 48 h, read-out: GI
SF-539 = test: Growth inhibition of human SF539 cells at 10 uM after 48 hrs by sulforhodamine B assay relative to control; conditions: SF-539, 48 h, read-out: GI
SNB-19 = test: Growth inhibition of human SNB19 cells at 10 uM after 48 hrs by sulforhodamine B assay relative to control; conditions: SNB-19, 48 h, read-out: GI
SNB-75 = test: Growth inhibition of human SNB75 cells at 10 uM after 48 hrs by sulforhodamine B assay relative to control; conditions: SNB-75, 48 h, read-out: GI
U-251 = test: Growth inhibition of human U251 cells at 10 uM after 48 hrs by sulforhodamine B assay relative to control; conditions: U-251, 48 h, read-out: GI
LOX IMVI = test: Growth inhibition of human LOXIMVI cells at 10 uM after 48 hrs by sulforhodamine B assay relative to control; conditions: read-out: GI
M14 = test: Growth inhibition of human M14 cells at 10 uM after 48 hrs by sulforhodamine B assay relative to control; conditions: M14, 48 h, read-out: GI
SK-MEL-2 = test: Growth inhibition of human SK-MEL-2 cells at 10 uM after 48 hrs by sulforhodamine B assay relative to control; conditions: SK-MEL-2, 48 h, read-out: GI
SK-MEL-28 = test: Growth inhibition of human SK-MEL-28 cells at 10 uM after 48 hrs by sulforhodamine B assay relative to control; conditions: SK-MEL-28, 48 h, read-out: GI
SK-MEL-5 = test: Growth inhibition of human SK-MEL-5 cells at 10 uM after 48 hrs by sulforhodamine B assay relative to control; conditions: SK-MEL-5, 48 h, read-out: GI
UACC-257 = test: Growth inhibition of human UACC257 cells at 10 uM after 48 hrs by sulforhodamine B assay relative to control; conditions: UACC-257, 48 h, read-out: GI
UACC-62 = test: Growth inhibition of human UACC62 cells at 10 uM after 48 hrs by sulforhodamine B assay relative to control; conditions: UACC-62, 48 h, read-out: GI
OVCAR-3 = test: Growth inhibition of human OVCAR3 cells at 10 uM after 48 hrs by sulforhodamine B assay relative to control; conditions: OVCAR-3, 48 h, read-out: GI
OVCAR-8 = test: Growth inhibition of human OVCAR8 cells at 10 uM after 48 hrs by sulforhodamine B assay relative to control; conditions: OVCAR-8, 48 h, read-out: GI
NCI/ADR-RES = test: Growth inhibition of human NCI-ADR-RES cells at 10 uM after 48 hrs by sulforhodamine B assay relative to control; conditions: read-out: GI
786-0 = test: Growth inhibition of human 786-0 cells at 10 uM after 48 hrs by sulforhodamine B assay relative to control; conditions: 786-0, 48 h, read-out: GI
A498 = test: Growth inhibition of human A498 cells at 10 uM after 48 hrs by sulforhodamine B assay relative to control; conditions: A498, 48 h, read-out: GI
CAKI-1 = test: Growth inhibition of human CAKI-1 cells at 10 uM after 48 hrs by sulforhodamine B assay relative to control; conditions: CAKI-1, 48 h, read-out: GI
SN12C = test: Growth inhibition of human SN12C cells at 10 uM after 48 hrs by sulforhodamine B assay relative to control; conditions: read-out: GI
TK-10 = test: Growth inhibition of human TK10 cells at 10 uM after 48 hrs by sulforhodamine B assay relative to control; conditions: TK-10, 48 h, read-out: GI
PC-3 = test: Growth inhibition of human PC3 cells at 10 uM after 48 hrs by sulforhodamine B assay relative to control; conditions: PC-3, 48 h, read-out: GI
DU-145 = test: Growth inhibition of human DU145 cells at 10 uM after 48 hrs by sulforhodamine B assay relative to control; conditions: DU-145, 48 h, read-out: GI
MCF7 = test: Growth inhibition of human MCF7 cells at 10 uM after 48 hrs by sulforhodamine B assay relative to control; conditions: MCF7, 48 h, read-out: GI
MDA-MB-231 = test: Growth inhibition of human MDA-MB-231 cells at 10 uM after 48 hrs by sulforhodamine B assay relative to control; conditions: MDA-MB-231, 48 h, read-out: GI
Hs-578T = test: Growth inhibition of human Hs 578T cells at 10 uM after 48 hrs by sulforhodamine B assay relative to control; conditions: read-out: GI
BT-549 = test: Growth inhibition of human BT549 cells at 10 uM after 48 hrs by sulforhodamine B assay relative to control; conditions: BT-549, 48 h, read-out: GI
MDA-MB-468 = test: Growth inhibition of human MDA-MB-468 cells at 10 uM after 48 hrs by sulforhodamine B assay relative to control; conditions: MDA-MB-468, 48 h, read-out: GI

Measured: inhibition of growth at 10 µM

COc1ccc(/C=C2\Oc3c(c(OC)c4ccoc4c3CN3CCOCC3)C2=O)cc1
56.4 to 65.2%: all assays above
